Molecules are shown by their SMILES. Residue numbers refer to the chain shown, from its start.

In test [1] the target is T1, M3 mAChR (Homo sapiens, UniProt P20309).
T1 construct: expressed in transfected cells; host or cells: CHO FlpIn
The test is described as follows: whole-cell [3H]NMS radioligand competition binding, CHO FlpIn cells. The note with it: first set of experiments, read-out: pKI (radioligand binding competition with [3H]NMS) (converted).

For test [2], the target named is T2, M4 mAChR (Homo sapiens, UniProt P08173).
T2 construct: expressed in transfected cells; host or cells: CHO FlpIn
T2 sequence (P08173 1-479): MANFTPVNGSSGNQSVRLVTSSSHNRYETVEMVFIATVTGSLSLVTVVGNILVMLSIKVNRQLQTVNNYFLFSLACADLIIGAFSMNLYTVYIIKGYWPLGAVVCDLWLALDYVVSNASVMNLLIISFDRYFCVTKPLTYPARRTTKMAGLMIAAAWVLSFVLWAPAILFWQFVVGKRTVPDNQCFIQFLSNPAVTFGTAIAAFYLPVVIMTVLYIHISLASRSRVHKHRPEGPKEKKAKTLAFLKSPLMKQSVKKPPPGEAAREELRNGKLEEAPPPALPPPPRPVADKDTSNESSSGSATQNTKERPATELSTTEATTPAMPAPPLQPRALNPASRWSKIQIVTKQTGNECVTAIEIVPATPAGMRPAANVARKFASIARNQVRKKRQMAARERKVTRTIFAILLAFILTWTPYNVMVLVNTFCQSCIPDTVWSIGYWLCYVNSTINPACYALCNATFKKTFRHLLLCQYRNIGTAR
The description is as above. The note with it: read-out: Affinities M2 M4: binding normalised to Buffer only-TB = 100.

In test [3] the target is T1, M3 mAChR. Briefly: pERK1/pERK2 signaling assay (AlphaScreen SureFire), CHO FlpIn cells. In kind it is cell-based. A general note: Alpha assays give light when donor and acceptor beads are brought close together.
In test [4] the target is T3, M4 L190F mAChR (Homo sapiens, UniProt P08173, L190F).
T3 construct: expressed in transfected cells; host or cells: CHO FlpIn
T3 sequence (P08173 1-479 L190F): T2 sequence (P08173 1-479) with L190F
The test is described as above. In kind it is cell-based. Particulars: M4(L190F); second set of experiments.

Test [5] concerns the target T4, M2 mAChR (Homo sapiens, UniProt P08172).
T4 sequence (P08172 1-466): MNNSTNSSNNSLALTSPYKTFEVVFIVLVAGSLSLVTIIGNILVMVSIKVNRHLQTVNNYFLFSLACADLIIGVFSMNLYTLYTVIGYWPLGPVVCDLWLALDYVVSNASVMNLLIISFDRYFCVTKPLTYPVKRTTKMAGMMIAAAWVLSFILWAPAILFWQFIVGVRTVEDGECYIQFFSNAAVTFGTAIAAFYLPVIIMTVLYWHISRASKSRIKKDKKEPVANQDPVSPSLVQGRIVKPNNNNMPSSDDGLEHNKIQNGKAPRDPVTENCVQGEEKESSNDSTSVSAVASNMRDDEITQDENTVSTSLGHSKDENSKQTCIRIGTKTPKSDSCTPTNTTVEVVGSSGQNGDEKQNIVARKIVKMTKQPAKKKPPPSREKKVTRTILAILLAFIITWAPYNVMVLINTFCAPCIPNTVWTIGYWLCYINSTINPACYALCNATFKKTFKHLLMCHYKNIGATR
The test is described as follows: whole-cell [3H]NMS radioligand competition binding, CHO FlpIn cells. (In general: Displacement assays read how much labelled ligand stays bound in the presence of the test substance.)

Test [6] deals with T2, M4 mAChR. Briefly: pERK1/pERK2 signaling assay (AlphaScreen SureFire), CHO FlpIn cells. It is filed as cell-based.
Test [7] addresses T5, M2 WT mAChR (Homo sapiens, UniProt P08172).
T5 construct: expressed in transfected cells; host or cells: CHO FlpIn
T5 sequence (P08172 1-466): T4 sequence (P08172 1-466)
Briefly: BRET TRUPATH GoA activation (G-protein dissociation) assay. In kind it is cell-based. The note with it: M2 WT; T=[…]. Here is the method:
(§1) Cells were seeded at 20,000 cells per well into 96-well flat-bottom white culture plates and grown for 4 h. Plasmid DNA (20 ng per well of Gα, Gβ and Gγ at a 1:1:1 ratio) and linear polyethylenimine were added to the cells in a 1:6 ratio. To allow for protein expression, cells were then incubated (37 °C, 5% CO2) for 48 h before the measurement of agonist activity. […] The initial 4 min of measurement was considered baseline counts before ligand or vehicle addition, with BRET readings every 2 min for a further 8 min following drug or vehicle addition.
(§2) Concentration–response curves were fitted to a three-parameter logistic equation to derive ligand potency (pEC50) estimates.
(§3) Data was analyzed using the operational model of agonism to quantify the efficacy (Logτ) of each agonist in each cell line, and subsequently corrected for receptor expression level differences between cell lines (Logτc), using the M2 WT as reference. […] Source data
On the technique in general: Bioluminescence resonance energy transfer reports proximity on the nanometre scale.

Test [8] addresses T3, M4 L190F mAChR. The description is as above. In kind it is cell-based. Particulars: T=[…]. Here is the method: as §1, §2, §3
The target of test [9] is T6, M5 mAChR (Homo sapiens, UniProt P08912).
T6 construct: expressed in transfected cells; host or cells: CHO FlpIn
T6 sequence (P08912 1-532): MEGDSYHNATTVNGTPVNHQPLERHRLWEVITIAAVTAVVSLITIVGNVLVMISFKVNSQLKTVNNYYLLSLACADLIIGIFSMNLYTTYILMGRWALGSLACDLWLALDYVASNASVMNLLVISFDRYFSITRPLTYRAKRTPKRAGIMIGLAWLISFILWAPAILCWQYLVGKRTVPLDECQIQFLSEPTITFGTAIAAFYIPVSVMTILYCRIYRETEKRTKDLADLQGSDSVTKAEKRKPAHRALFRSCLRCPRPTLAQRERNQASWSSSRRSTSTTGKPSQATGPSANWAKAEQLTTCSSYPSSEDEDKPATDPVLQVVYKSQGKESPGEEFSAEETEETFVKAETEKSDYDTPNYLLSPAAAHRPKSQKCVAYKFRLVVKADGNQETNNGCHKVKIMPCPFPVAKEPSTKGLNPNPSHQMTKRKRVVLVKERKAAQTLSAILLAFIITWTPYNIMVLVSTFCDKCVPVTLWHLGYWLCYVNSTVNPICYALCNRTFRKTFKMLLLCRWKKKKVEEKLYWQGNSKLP
The test is described as follows: pERK1/pERK2 signaling assay (AlphaScreen SureFire), CHO FlpIn cells. It is filed as cell-based. The note with it: first set of experiments.

Test [10] has as its target T7, M4 WT mAChR (Homo sapiens, UniProt P08173).
T7 construct: expressed in transfected cells; host or cells: CHO FlpIn
T7 sequence (P08173 1-479): T2 sequence (P08173 1-479)
Briefly: BRET TRUPATH GoA activation (G-protein dissociation) assay. In kind it is cell-based. The note with it: T=[…].

T1 sequence (P20309 whole entry): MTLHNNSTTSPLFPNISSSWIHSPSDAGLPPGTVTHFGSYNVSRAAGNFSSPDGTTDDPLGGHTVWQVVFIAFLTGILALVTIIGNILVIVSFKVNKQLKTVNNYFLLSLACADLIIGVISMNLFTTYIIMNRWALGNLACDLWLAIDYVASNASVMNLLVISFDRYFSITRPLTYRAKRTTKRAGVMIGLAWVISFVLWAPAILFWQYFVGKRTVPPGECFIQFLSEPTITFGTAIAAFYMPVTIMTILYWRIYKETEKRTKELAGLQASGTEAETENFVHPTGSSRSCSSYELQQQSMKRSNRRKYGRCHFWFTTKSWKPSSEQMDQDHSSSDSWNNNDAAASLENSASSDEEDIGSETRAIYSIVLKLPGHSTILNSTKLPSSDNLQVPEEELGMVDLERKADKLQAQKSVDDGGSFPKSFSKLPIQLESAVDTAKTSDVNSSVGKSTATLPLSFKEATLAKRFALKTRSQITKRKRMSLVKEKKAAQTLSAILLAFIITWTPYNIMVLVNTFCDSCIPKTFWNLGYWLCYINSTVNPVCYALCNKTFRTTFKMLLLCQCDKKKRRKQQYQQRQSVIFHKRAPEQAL

Regarding `CCCCCCOc1nsnc1C1=CCCN(C)C1` [Xanomeline, xanomeline], in test [1], the Ki was 100 nM. Also, in [2] (M4, Log[Ligand] (M) -5, individual experiments), the remaining binding at 10 µM amounted to 1.95%. Also, in test [2] (M4, Log[Ligand] (M) -6, individual experiments), the remaining binding at 1 µM was determined as 18.6%. Further, the remaining binding at 0.1 µM came out at 88% in test [2] (M4, Log[Ligand] (M) -7, individual experiments) and 83.3% in test [5] (read-out: Affinities M2 M4: binding normalised to Buffer only-TB = 100, M2, Log[Ligand] (M) -7, individual experiments). Moreover, in [2] (M4, Log[Ligand] (M) -9, individual experiments), the remaining binding at 0.001 µM came out at 105%. For the same molecule, the “Emax pERK1/2” value in [3] was 62 ± 6 % FBS stimulation; in [4] it was 90 ± 8 % FBS stimulation; in [6] (first set of experiments (top 5 rows)) it was 92 ± 4 % FBS stimulation; in test [6] (second set of experiments (bottom 4 rows)), 101 ± 3 % FBS stimulation; in [9] it was 80 ± 8 % FBS stimulation. Further, the EC50 in [3] (M3, first set of experiments, read-out: pEC50 pERK1/2 (converted)) was 117 nM. Besides, in test [5] (read-out: Affinities M2 M4: binding normalised to Buffer only-TB = 100, M2, Log[Ligand] (M) -8, individual experiments), the remaining binding at 0.01 µM is 90.2%. In addition, in test [5] (read-out: Affinities M2 M4: binding normalised to Buffer only-TB = 100, M2, Log[Ligand] (M) -10, individual experiments), the remaining binding at 0.0001 µM was 101%. In addition, the “Log(Tau) corrected for receptor expression (Logτc), GoA activation” value is listed as -0.65 in [7], -0.36 in [8] and 0.38 in test [10]. Moreover, the activation at 1000 µM in test [8] ([…], Log[Ligand] (M) -3, individual experiments, read-out: GoA activation response) amounted to 3.92%. The activation at 10 µM in [8] ([…], Log[Ligand] (M) -5, individual experiments, read-out: GoA activation response) worked out at 49%.

Values taken from PMC10299909, “Structural basis of efficacy-driven ligand selectivity at GPCRs” (Nature Chemical Biology, 2023).
